# In patent US20260365698A1, “STAPLED PEPTIDES FOR SENSITIZATION OF CANCER TO TREATMENT” (Purdue Research Foundation, priority 2022, published 2026):
# Entries after “also recorded” stand apart in the source; their conditions may differ. Bridge positions count the residues as written; N and C are the ends. Square brackets hold non-standard residues; d marks the D form. Peptide text beside a SMILES is read from it. S5 = C=CCCC[C@](C)(N)C(=O)O
# What was measured:
# proteinase K = test: Proteinase K peptide stability assay; conditions: 55 μM peptide, 10 μg/mL proteinase K; some significant degradation
# Method: Data are from three independent replicates with standard error indicated. Scale bar indicates 50 μm.
# Peptide stability assays were performed using the protocols described in Cromm et al., Protease-resistant and cell-permeable double-stapled peptides targeting the Rab8a GTPase, ACS Chemical Biology 11(8): 2375-2382 (2016). Briefly, 55 μM of peptide was incubated with 10 μg/mL proteinase K for the indicated timepoints. At the end of each time point, 50 μL of the reaction mixture were quenched in 100 μL of a 1:1 mixture acetonitrile/water+1% formic acid (FA). Samples were injected and analyzed on a Triple quad. Analysis was done using an Agilent Technologies 1200 Series attached to an Agilent Technologies 6460 Triple Quad LC/MS. Analysis was performed with a ZORBAX XDB-C18 […], 2.1×50 mm column (Agilent Technologies, Inc., Santa Clara, CA). Eluent A: H2O with 0.1% FA. Eluent B: MeCN with 0.1% FA. Purity analysis utilized the gradient as follows: (A:B, 0.3 mL/min): 95:5, 0 minutes; 95:5, 1 minute; 5:95, 5 minutes; 5:95, 8 minutes: 95:5, 8.5 minutes; 95:5, 12.5 minutes.
# HEK-293T cells = test: Toxicity to the cells in the luciferase assay; assay type: cell-based; conditions: 16 hours, listed as NIS
# Method: The peptides from Example 1 were screened for Nrf2 inhibition using a previously developed dual luciferase assay. Ren et al., Brusatol enhances the efficacy of chemotherapy by inhibiting the Nrf2-mediated defense mechanism, Biological Sciences 108(4): 1433-1438 (2011). Briefly, HEK-293T cells stably expressing ARE-firefly luciferase and TK-Renilla luciferase were used. The cells were treated with different concentrations of compounds N1 (SEQ ID NO: 3), N1 S (SEQ ID NO: 6), N2 (SEQ ID NO: 4), N2S (SEQ ID NO: 7), N3 (SEQ ID NO: 5), and N3S (SEQ ID NO: 8) for 16 hours. The cells were lysed in 1× passive lysis buffer, and both firefly luciferase and Renilla luciferase activities were measured using the Promega Dual-Luciferase™ Reporter (DLR™) Assay System and a luminometer (Turner Biosystems 20/20^n Luminometer). The samples were in triplicate for all concentrations of compounds (n=3).
# [1] = tested on: thioredoxin reductase 1 (TrxR1) in A549 cells; test: Western blot, TrxR1 expression; assay type: cell-based; conditions: 72 hours
# Method: After confirming the in vitro activity of NIS, its mechanism in a cellular context was examined. Western blots were carried out in the A549 non-small cell lung cancer cell line to show the effects of N1S inhibition on the protein expression of Nrf2-regulated proteins. Briefly, A549 cells were seeded in 6-well plates at a concentration of 2×10^5 cells/ml in 2.5 ml. Cells were treated the next day with either peptide at the desired concentration or DMSO. After a 72-hour incubation, cells were collected by trypsinization and centrifugation. Pellets were washed with PBS three times before the pellet was resuspended in 250 μL of RIPA buffer containing protease inhibitor and kept on ice for 30 minutes with intermittent vortex. The cells were then spun at 16,000 g for 5 minutes, and the supernatant was collected. Protein concentration of lysate was normalized with Pierce BCA Protein Assay Kit (Thermo Fisher Scientific, Waltham, MA). Equal volumes of lysate were mixed with 2× Laemmli sample buffer before separating on 4-15% Mini Protean TGX SDS-PAGE (Bio-Rad Laboratories, Hercules, CA). […]
# ImageJ was used for quantification of all bands. Primary antibodies: TrxR1 (Santa Cruz Biotechnology, Dallas, TX), sc-28321, 1:100 dilution (~55 kDa band analyzed); j-actin (Cell Signaling Technology, Inc., Danvers, MA), #3700, 1:1000. […]
# [2] = tested on: A549 non-small cell lung cancer cells; test: MTT assay / live cell growth, combination with cisplatin; assay type: cell-based
# Method: Percent dead in red color indicates higher percentage of death. Data are representative of three independent replicates.
# The ability of compound N1S to increase sensitivity to chemotherapeutics was examined. A549 non-small cell lung cancer cells were seeded into a Corning® 96-Well Cell Culture Plate (clear, sterile, non-treated) and incubated for 24 hours. The cells were treated with cisplatin alone, compound NIS alone, or in combination. Immediately following treatment, the cells were placed into an Incucyte® S3 Live-Cell Analysis Instrument (Sartorius AG, Gottingen, Germany) and imaged every two hours for three days. The Incucyte® S3's analytical software was used to calculate cell confluency at each time point. Synergy was determined using the Chou-Talalay method.
# Additionally, an MTT assay was performed on the plate of cells from the Incucyte® study, and a separate, identical plate of cells was incubated for 24 hours. MTT reagent (20 μL of 5 mM stock) was added to each well and incubated for three hours at 37 °C. Following incubation, the plate was spun down at 2,500 rpm for five minutes at room temperature and then aspirated to remove the media. […] The absorbance of each well was measured at 570 nm using a plate reader (Molecular Devices SpectraMax® iD5 Multi-Mode Microplate Reader). […]
# Hemolysis assay = assay type: cell-based; conditions: red blood cells
# Method: (§1) Finally, a hemolysis assay was performed based on a method described in Hostetler et al. (2021), supra. The peptides were tested at a final concentration of 100 μM and an average of 0.3% hemolysis was observed (data not shown).
# red blood cells = test: Hemolysis assay; assay type: cell-based; conditions: 100 μM
# Method: as §1
smiles,measurement,setting,value
CC[C@H](C)[C@H](NC(C)=O)C(=O)N[C@H](C(=O)N[C@@H](CCC(=O)O)C(=O)N[C@@H](CC(C)C)C(=O)N[C@@H](CCC(=O)O)C(=O)N[C@@]1(C)CCCC=CCCC[C@@](C)(C(=O)N[C@@H](CC(C)C)C(=O)N[C@@H](CCCCN)C(=O)N[C@@H](CC(=O)O)C(=O)N[C@@H](CCC(=O)O)C(=O)N[C@@H](CCCCN)C(=O)N[C@@H](CCC(=O)O)C(N)=O)NC(=O)[C@H](CC(=O)O)NC(=O)[C@H](CC(C)C)NC(=O)[C@H](CC(=O)O)NC1=O)C(C)C [N1S] (Ac-IVELE[S5]DLD[S5]LKDEKE-NH2; staple 6-10),time at which significant degradation starts,proteinase K,24 h
same,toxicity to the cells,HEK-293T cells,no toxicity; also recorded: without showing toxicity
same,TrxR1 protein expression,[1],decrease
same,growth compared to either treatment alone,[2]; 50 μM N1S combined with 6 μM cisplatin,greatly reduced levels of growth
same,sensitization of cancer cell lines to chemotherapeutics,[2]; combination with cisplatin,can greatly sensitize cancer cell lines to chemotherapeutics
same,hemolysis at 100 µM,Hemolysis assay,0.3%
same,toxicity to red blood cells,red blood cells,no toxicity
